What all share (test): Minimal inhibitory concentration (M.I.C.), agar dilution method
Common to all, as to settings: TSA, inoculum 10^7 /ml

One assay has as its system P. morganii IFO 3168. In kind it is cell-based, Proteus morganii. The text has this: (§1) (a) Determination of minimal inhibitory concentrations (Tables 1 to 8):
(§2) Procedure: agar dilution method

The test system of another assay is E. cloacae TN 1282. It is filed as cell-based, Enterobacter cloacae.
Text: as §1, §2

For the next assay, the system named is P. rettgeri TN 338. It is filed as cell-based, Proteus rettgeri.
Text: as §1, §2

For a further assay, the system named is P. rettgeri GN4733. It is filed as cell-based, Proteus rettgeri.
Text: as §1, §2

A further assay relates to K. pneumoniae DT. In kind it is cell-based, Klebsiella pneumoniae.
Text: as §1, §2

Another assay relates to K. pneumoniae GN 3835. It is filed as cell-based, Klebsiella pneumoniae.
Text: as §1, §2

In the next assay the test system is S. marcescens IFO 12648. In kind it is cell-based, Serratia marcescens.
Text: as §1, §2

The subject of another assay is S. marcescens TN 24. It is filed as cell-based, Serratia marcescens.
Text: as §1, §2

The next assay has as its system P. vulgaris GN 4413. In kind it is cell-based, Proteus vulgaris.
Text: as §1, §2

The test system of a further assay is P. vulgaris IFO 3988. It is filed as cell-based, Proteus vulgaris.
Text: as §1, §2

Another assay relates to S. aureus 1840. In kind it is cell-based, Staphylococcus aureus.
Text: as §1, §2

In a further assay the test system is S. aureus 209P. In kind it is cell-based, Staphylococcus aureus.
Text: as §1, §2

The next assay relates to E. coli 0-111. It is filed as cell-based, Escherichia coli.
Text: The minimal inhibitory concentrations (M.I.C.) of some representative cephalosporin derivatives of this invention as produced by the procedures described in those examples and the minimal inhibitory concentrations of cephalothin [sodium 7-(2-thienylacetamido)-3-acetoxymethyl-3-cephem-4-carboxylate], cephaloridine [7-(2-thienylacetamido)-3-(1-pyridyl)methyl-3-cephem-4-carboxylic acid betaine] and cefazolin [sodium 7-(1H-tetrazol-1-yl)acetamido-3-(2-methyl-1,3,4-thiadiazol-5-yl)thiomethyl-3-cephem-4-carboxylate], which are among the clinically established and commercially available cephalosporins (as described, for example, in the New England Journal of Medicine 294, 24, 1976 and Journal of Pharmaceutical Science 64, 1899, 1975), both against various bacteria, as well as the therapeutic effects of some respresentative cephalosporin derivatives of this invention and of cephaloridine in infected mice, are shown in tables.
as §1, §2

The next assay relates to E. coli NIHJ JC-2. In kind it is cell-based, Escherichia coli.
Text: as §1, §2

The next assay relates to E. coli T-7. It is filed as cell-based, Escherichia coli.
Text: as §1, §2

For a further assay, the system named is P. mirabilis GN 4359. It is filed as cell-based, Proteus mirabilis.
Text: as §1, §2

In a further assay the test system is C. freundii GN 99. In kind it is cell-based, Citrobacter freundii.
Text: as §1, §2

For the next assay, the system named is C. freundii GN 1706. In kind it is cell-based, Citrobacter freundii.
Text: as §1, §2

Consider three molecules from US4200575A, “7[(2-Thiazolyl)-2-(oxoimino)acetamido]cephalosporin derivatives” (Takeda Chemical Industries, Ltd., priority 1977, dated 1980).

Molecules are shown by their SMILES.

Consider `CC(C)NC(=O)O/N=C(\C(=O)NC1C(=O)N2C(C(=O)O)=C(COC(N)=O)CSC12)c1csc(=N)[nH]1` (centres unmarked) [Example II - 17], for which the “minimal inhibitory concentration (M.I.C.)” value is reported as 1.56 in the assay with P. morganii IFO 3168; 6.25 in the assay with E. cloacae TN 1282; at most 0.012 in the assay on P. rettgeri TN 338; 0.1 in the assay on P. rettgeri GN4733; 0.1 in the assay with K. pneumoniae DT; 0.39 in the assay with K. pneumoniae GN 3835. Also, the “minimal inhibitory concentration (M.I.C.)” value with S. marcescens IFO 12648 came to 6.25; in the assay on S. marcescens TN 24, 25; in the assay on P. vulgaris GN 4413, 100; in the assay on P. vulgaris IFO 3988 it was 0.39; with S. aureus 1840, 3.13; in the assay on S. aureus 209P it was 1.56. The “minimal inhibitory concentration (M.I.C.)” value in the assay with E. coli 0-111 amounted to 0.05; in the assay on E. coli NIHJ JC-2, 0.39; in the assay with E. coli T-7, 3.13; in the assay on P. mirabilis GN 4359, 0.1; with C. freundii GN 99, 0.39; with C. freundii GN 1706 it was 0.78.

Regarding `CNC(=O)O/N=C(\C(=O)NC1C(=O)N2C(C(=O)O)=C(CSc3nnnn3CCO)CSC12)c1csc(=N)[nH]1` (centres unmarked) [Example IV - 4], the “minimal inhibitory concentration (M.I.C.)” value in the assay on P. morganii IFO 3168 is reported as at most 0.2; with E. cloacae TN 1282, 3.13; with P. rettgeri TN 338, at most 0.2; in the assay with P. rettgeri GN4733, 0.39; in the assay with K. pneumoniae DT it was at most 0.2; in the assay on K. pneumoniae GN 3835, 0.39. Further, the “minimal inhibitory concentration (M.I.C.)” value in the assay with S. marcescens IFO 12648 is listed as 3.13; in the assay with S. marcescens TN 24, 3.13; with P. vulgaris GN 4413, 12.5; with P. vulgaris IFO 3988, at most 0.2; with S. aureus 1840, 3.13; in the assay on S. aureus 209P it was 3.13. Further, the “minimal inhibitory concentration (M.I.C.)” value in the assay on E. coli 0-111 was at most 0.2; in the assay on E. coli NIHJ JC-2, at most 0.2; in the assay on E. coli T-7, 3.13; in the assay with P. mirabilis GN 4359, at most 0.2; in the assay on C. freundii GN 99, at most 0.2; in the assay with C. freundii GN 1706 it was 0.39.

With `Cc1nnc(SCC2=C(C(=O)[O-])N3C(=O)C(NC(=O)Cn4cnnn4)[C@H]3SC2)s1.[Na+]` (some centres unmarked) [Cefazolin, sodium 7-(1H-tetrazol-1-yl)acetamido-3-(2-methyl-1,3,4-thiadiazol-5-yl)thiomethyl-3-cephem-4-carboxylate, reference compound], the “minimal inhibitory concentration (M.I.C.)” value in the assay on P. morganii IFO 3168 is 100; in the assay with P. rettgeri TN 338, at most 0.2; in the assay on P. rettgeri GN4733, 100; in the assay on K. pneumoniae DT, 1.56; in the assay on K. pneumoniae GN 3835 it was 6.25; with S. marcescens IFO 12648, above 100. For the same molecule, the “minimal inhibitory concentration (M.I.C.)” value is on record as above 100 with S. marcescens TN 24; above 100 in the assay with P. vulgaris GN 4413; 3.13 with P. vulgaris IFO 3988; 1.56 in the assay with S. aureus 1840; 0.39 in the assay on S. aureus 209P; 1.56 in the assay on E. coli 0-111. Further, the “minimal inhibitory concentration (M.I.C.)” value in the assay on E. coli NIHJ JC-2 was 1.56; in the assay on E. coli T-7 it was 50; in the assay with P. mirabilis GN 4359, 6.25; in the assay with C. freundii GN 99 it was 12.5; in the assay with C. freundii GN 1706 it was above 100.
